Results from ChEMBL document CHEMBL1201862, “PubChem BioAssay data set” (2004).
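Interpolation was linear, between the two tested concentrations surrounding the appropriate level; five concentrations were tested over 48 hours in 96-well plates. Abbreviation: GI50, concentration required for 50% inhibition of growth.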 Active and inactive are the calls of the source. Rule as the data show it: active = GI50 up to about 1.1 µM and inactive = higher.

How the values were obtained:
Test in all cases: inhibition of tumour cell growth, NCI panel, 48 h
A498 = tested on: A498
A549 = tested on: A549
ACHN = tested on: ACHN
CAKI-1 = tested on: CAKI-1
CCRF-CEM = tested on: CCRF-CEM
COLO 205 = tested on: COLO 205
DLD-1 = tested on: DLD-1
DMS-114 = tested on: DMS-114
DMS-273 = tested on: DMS-273
EKVX = tested on: EKVX
HCC 2998 = tested on: HCC 2998
HCT-116 = tested on: HCT-116
HCT-15 = tested on: HCT-15
HL-60 = tested on: HL-60
HOP-18 = tested on: HOP-18
HOP-62 = tested on: HOP-62
HOP-92 = tested on: HOP-92
HT-29 = tested on: HT-29
IGROV-1 = tested on: IGROV-1
K562 = tested on: K562
KM-20L2 = tested on: KM-20L2
KM12 = tested on: KM12
LXFL 529 = tested on: LXFL 529
M14 = tested on: M14
M19-MEL = tested on: M19-MEL
MOLT-4 = tested on: MOLT-4
Malme-3M = tested on: Malme-3M
NCI-H226 = tested on: NCI-H226
NCI-H23 = tested on: NCI-H23
NCI-H460 = tested on: NCI-H460
NCI-H522 = tested on: NCI-H522
OVCAR-3 = tested on: OVCAR-3
OVCAR-4 = tested on: OVCAR-4
OVCAR-5 = tested on: OVCAR-5
OVCAR-8 = tested on: OVCAR-8
RPMI-8226 = tested on: RPMI-8226
RXF 393 = tested on: RXF 393
SF-268 = tested on: SF-268
SF-295 = tested on: SF-295
SF-539 = tested on: SF-539
SK-MEL-28 = tested on: SK-MEL-28
SK-MEL-2 = tested on: SK-MEL-2
SK-MEL-5 = tested on: SK-MEL-5
SK-OV-3 = tested on: SK-OV-3
SN12C = tested on: SN12C
SNB-19 = tested on: SNB-19
SNB-75 = tested on: SNB-75
SNB-78 = tested on: SNB-78
SR = tested on: SR
SW-620 = tested on: SW-620
TK-10 = tested on: TK-10
U-251 = tested on: U-251
UACC-257 = tested on: UACC-257
UACC-62 = tested on: UACC-62
UO-31 = tested on: UO-31
XF498 = tested on: XF498
786-0 = tested on: 786-0
LOX IMVI = tested on: LOX IMVI
BT-549 = tested on: BT-549
DU-145 = tested on: DU-145
Hs-578T = tested on: Hs-578T
MCF7 = tested on: MCF7
MDA-MB-231 = tested on: MDA-MB-231
MDA-MB-435 = tested on: MDA-MB-435
MDA-N = tested on: MDA-N
NCI/ADR-RES = tested on: NCI/ADR-RES
PC-3 = tested on: PC-3
T47D = tested on: T47D

CC(=O)C(/N=N\C1CCC(S(=O)(=O)NB2N=CS2)CC1)C(=O)Nc1ccccc1C (stereo unspecified)
GI50 (A498): 16.7 µM (inactive)
GI50 (A549): 13 µM (inactive)
GI50 (ACHN): 12.2 µM (inactive)
GI50 (CAKI-1): 23.1 µM (inactive)
GI50 (CCRF-CEM): 19 µM (inactive)
GI50 (COLO 205): 20.9 µM (inactive)
GI50 (DLD-1): 16.9 µM (inactive)
GI50 (DMS-114): 11.9 µM (inactive)
GI50 (DMS-273): 20.6 µM (inactive)
GI50 (EKVX): 19.3 µM (inactive)
GI50 (HCC 2998): 17.5 µM (inactive)
GI50 (HCT-116): 13.5 µM (inactive)
GI50 (HCT-15): 10.5 µM
GI50 (HL-60): > 100 µM (inactive)
GI50 (HOP-18): 29.3 µM (inactive)
GI50 (HOP-62): 20 µM (inactive)
GI50 (HOP-92): 19.2 µM (inactive)
GI50 (HT-29): 16 µM (inactive)
GI50 (IGROV-1): 17.4 µM (inactive)
GI50 (K562): > 100 µM (inactive)
GI50 (KM-20L2): 15.9 µM (inactive)
GI50 (KM12): 16 µM (inactive)
GI50 (LXFL 529): 14.2 µM (inactive)
GI50 (M14): 19.2 µM (inactive)
GI50 (M19-MEL): 17.6 µM (inactive)
GI50 (MOLT-4): 18.3 µM (inactive)
GI50 (Malme-3M): 16 µM (inactive)
GI50 (NCI-H226): 14.9 µM (inactive)
GI50 (NCI-H23): 13.6 µM (inactive)
GI50 (NCI-H460): 15.8 µM (inactive)
GI50 (NCI-H522): 15.3 µM (inactive)
GI50 (OVCAR-3): 13.8 µM (inactive)
GI50 (OVCAR-4): 12.8 µM (inactive)
GI50 (OVCAR-5): 19.8 µM (inactive)
GI50 (OVCAR-8): 10.5 µM (inactive)
GI50 (RPMI-8226): 31.1 µM (inactive)
GI50 (RXF 393): 21 µM (inactive)
GI50 (SF-268): 14.7 µM (inactive)
GI50 (SF-295): 17 µM (inactive)
GI50 (SF-539): 17.7 µM (inactive)
GI50 (SK-MEL-28): 15.4 µM (inactive)
GI50 (SK-MEL-2): 17.9 µM (inactive)
GI50 (SK-MEL-5): 12.6 µM (inactive)
GI50 (SK-OV-3): 27 µM (inactive)
GI50 (SN12C): 17.4 µM (inactive)
GI50 (SNB-19): 16.5 µM (inactive)
GI50 (SNB-75): 17.5 µM (inactive)
GI50 (SNB-78): 23.6 µM (inactive)
GI50 (SR): 43.7 µM (inactive)
GI50 (SW-620): 16.3 µM (inactive)
GI50 (TK-10): 25.6 µM (inactive)
GI50 (U-251): 13.7 µM (inactive)
GI50 (UACC-257): 17.9 µM (inactive)
GI50 (UACC-62): 17.9 µM (inactive)
GI50 (UO-31): 18.8 µM (inactive)
GI50 (XF498): 16.9 µM (inactive)

Cn1cnc(S[C@H]2[C@H]3C(=O)C=C4S[C@H]5C[C@]42C2=C(N5)C(=O)c4[nH]cc5c4C2=[N+]3CC5)c1C[C@H](N)C(=O)O
GI50 (786-0): 19 µM (inactive)
GI50 (A498): 18.8 µM (inactive)
GI50 (A549): 20.4 µM (inactive)
GI50 (ACHN): 14.8 µM (inactive)
GI50 (CAKI-1): 27 µM (inactive)
GI50 (CCRF-CEM): 17.1 µM (inactive)
GI50 (COLO 205): 2.11 µM (inactive)
GI50 (DLD-1): 17.2 µM (inactive)
GI50 (DMS-114): 2.52 µM (inactive)
GI50 (DMS-273): 12.7 µM (inactive)
GI50 (EKVX): 17.7 µM (inactive)
GI50 (HCC 2998): 16.2 µM (inactive)
GI50 (HCT-116): 3.7 µM (inactive)
GI50 (HCT-15): 30.8 µM
GI50 (HL-60): 15.3 µM (inactive)
GI50 (HOP-18): 52.1 µM (inactive)
GI50 (HOP-92): 18.9 µM (inactive)
GI50 (HT-29): 4.09 µM (inactive)
GI50 (IGROV-1): 16.4 µM (inactive)
GI50 (K562): 17.3 µM (inactive)
GI50 (KM-20L2): 4.47 µM (inactive)
GI50 (KM12): 16.7 µM (inactive)
GI50 (LOX IMVI): 13.1 µM (inactive)
GI50 (LXFL 529): 14.1 µM (inactive)
GI50 (M14): 15.4 µM (inactive)
GI50 (M19-MEL): 8.73 µM (inactive)
GI50 (MOLT-4): 12.7 µM (inactive)
GI50 (Malme-3M): 3.72 µM (inactive)
GI50 (NCI-H226): 19.4 µM (inactive)
GI50 (NCI-H23): 10.7 µM (inactive)
GI50 (NCI-H460): 27.5 µM (inactive)
GI50 (NCI-H522): 4.58 µM (inactive)
GI50 (OVCAR-3): 3.5 µM (inactive)
GI50 (OVCAR-4): 17.1 µM (inactive)
GI50 (OVCAR-5): 15.1 µM (inactive)
GI50 (OVCAR-8): 13.6 µM (inactive)
GI50 (RPMI-8226): 16.7 µM (inactive)
GI50 (RXF 393): 22.1 µM (inactive)
GI50 (SF-268): 12.1 µM (inactive)
GI50 (SF-295): 15.8 µM (inactive)
GI50 (SF-539): 16.5 µM (inactive)
GI50 (SK-MEL-28): 16.8 µM (inactive)
GI50 (SK-MEL-2): 13.7 µM (inactive)
GI50 (SK-MEL-5): 13.4 µM (inactive)
GI50 (SK-OV-3): 21.4 µM (inactive)
GI50 (SN12C): 3.56 µM (inactive)
GI50 (SNB-19): 17.6 µM (inactive)
GI50 (SNB-75): 18.7 µM (inactive)
GI50 (SNB-78): 20.9 µM (inactive)
GI50 (SR): 19.1 µM (inactive)
GI50 (SW-620): 6.14 µM (inactive)
GI50 (TK-10): 38.3 µM (inactive)
GI50 (U-251): 17.2 µM (inactive)
GI50 (UACC-257): 16.1 µM (inactive)
GI50 (UACC-62): 15.7 µM (inactive)
GI50 (UO-31): 17.5 µM (inactive)
GI50 (XF498): 15.3 µM (inactive)

Cc1ccc(C(=O)Nc2ccc(S(=O)(=O)O)c3cc(S(=O)(=O)O)cc(S(=O)(=O)O)c23)cc1NC(=O)c1cccc(NC(=O)Nc2cccc(C(=O)Nc3cc(C(=O)Nc4ccc(S(=O)(=O)O)c5cc(S(=O)(=O)O)cc(S(=O)(=O)O)c45)ccc3C)c2)c1 [SURAMIN]
GI50 (786-0): 74.6 µM (inactive)
GI50 (A498): > 84.3 µM (inactive)
GI50 (A549): 56.4 µM (inactive)
GI50 (ACHN): 97.9 µM (inactive)
GI50 (BT-549): 95.7 µM (inactive)
GI50 (CAKI-1): 73.5 µM (inactive)
GI50 (CCRF-CEM): > 100 µM (inactive)
GI50 (COLO 205): > 72.9 µM (inactive)
GI50 (DLD-1): 97.5 µM (inactive)
GI50 (DMS-114): 28.6 µM (inactive)
GI50 (DMS-273): 39.8 µM (inactive)
GI50 (DU-145): > 100 µM (inactive)
GI50 (EKVX): > 69.5 µM (inactive)
GI50 (HCC 2998): > 100 µM (inactive)
GI50 (HCT-116): 76 µM (inactive)
GI50 (HCT-15): 90.8 µM
GI50 (HL-60): 49.4 µM (inactive)
GI50 (HOP-18): > 52.4 µM (inactive)
GI50 (HOP-62): > 100 µM (inactive)
GI50 (HOP-92): 54.5 µM (inactive)
GI50 (HT-29): 62.4 µM (inactive)
GI50 (Hs-578T): > 100 µM (inactive)
GI50 (IGROV-1): 69.3 µM (inactive)
GI50 (K562): > 93.5 µM (inactive)
GI50 (KM-20L2): 34.6 µM (inactive)
GI50 (KM12): > 67.5 µM (inactive)
GI50 (LOX IMVI): 51.1 µM (inactive)
GI50 (LXFL 529): > 100 µM (inactive)
GI50 (M14): 74.8 µM (inactive)
GI50 (M19-MEL): 59.7 µM (inactive)
GI50 (MCF7): > 100 µM (inactive)
GI50 (MDA-MB-231): > 100 µM (inactive)
GI50 (MDA-MB-435): > 100 µM (inactive)
GI50 (MDA-N): > 100 µM (inactive)
GI50 (MOLT-4): > 80 µM (inactive)
GI50 (Malme-3M): > 83 µM (inactive)
GI50 (NCI-H226): > 63.8 µM (inactive)
GI50 (NCI-H23): 68.9 µM (inactive)
GI50 (NCI-H460): > 80.5 µM (inactive)
GI50 (NCI-H522): 88.5 µM (inactive)
GI50 (NCI/ADR-RES): > 100 µM (inactive)
GI50 (OVCAR-3): > 93.3 µM (inactive)
GI50 (OVCAR-4): 79.3 µM (inactive)
GI50 (OVCAR-5): > 50.6 µM (inactive)
GI50 (OVCAR-8): 74.8 µM (inactive)
GI50 (PC-3): > 100 µM (inactive)
GI50 (RPMI-8226): > 100 µM (inactive)
GI50 (RXF 393): > 92.7 µM (inactive)
GI50 (SF-268): 66.2 µM (inactive)
GI50 (SF-295): 69 µM (inactive)
GI50 (SF-539): > 100 µM (inactive)
GI50 (SK-MEL-28): > 91.6 µM (inactive)
GI50 (SK-MEL-2): 58.9 µM (inactive)
GI50 (SK-MEL-5): > 84.7 µM (inactive)
GI50 (SK-OV-3): > 88.1 µM (inactive)
GI50 (SN12C): > 80.9 µM (inactive)
GI50 (SNB-19): > 100 µM (inactive)
GI50 (SNB-75): 48.2 µM (inactive)
GI50 (SNB-78): > 71.3 µM (inactive)
GI50 (SR): 69.3 µM (inactive)
GI50 (SW-620): 89.3 µM (inactive)
GI50 (T47D): > 100 µM (inactive)
GI50 (TK-10): 32 µM (inactive)
GI50 (U-251): 77.3 µM (inactive)
GI50 (UACC-257): > 100 µM (inactive)
GI50 (UACC-62): 54.6 µM (inactive)
GI50 (UO-31): 39.4 µM (inactive)
GI50 (XF498): 27 µM (inactive)
